Assay results: US8299056B2 (Signal Pharmaceuticals, LLC, priority 2008, dated 2012)
Like-named read-outs stand apart in the source and are kept apart here.

Target: T1, Syk (Homo sapiens, UniProt P43405)
T1 construct: purchased Carna Biosciences
Test: Syk HTRF assay
Type: biochemical
Summary of the method: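 HTRF kinase assay in HEPES pH 7.6 buffer with MgCl2, DTT and Triton X100; start mix of 87.5 μM ATP and 80 nM biotinylated peptide, 1 h at room temperature. EDTA stop, then Eu-anti-phosphotyrosine/streptavidin-DyLight 647 detection, read as 665/615 nm emission ratio.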

[1] = activity levels A-D, read-out: Activity Level (IC50 in the Syk HTRF assay)
[2] = read-out: Activity Level (Syk HTRF assay IC50)
[3] = IC50 activity level, read-out: Activity Level

| SMILES | IC50 [1] [nM] | IC50 [3] [nM] | further results |
| --- | --- | --- | --- |
| COc1cc(Nc2nc3cccc(N[C@H]4CC[C@@H](O)CC4)n3n2)ccn1 [Example 378, cis-4-(2-(2-methoxypyridin-4-ylamino)-[1,2,4]triazolo[1,5-a]pyridin-5-ylamino)cyclohexanol] | 0.005 to 250 |  |  |
| c1ccc(-c2cccc3nc(Nc4ccncc4)nn23)cc1 [compound 58, 5-phenyl-N-(pyridin-4-yl)-[1,2,4]triazolo[1,5-a]pyridin-2-amine] |  |  | IC50 [2]: 500 to 1000 nM |
| O[C@H]1CC[C@@H](Nc2cccc3nc(Nc4ccnc(NCCN5CCCC5)c4)nn23)CC1 [Example 278, cis-4-(2-(2-(2-(pyrrolidin-1-yl)ethylamino)pyridin-4-ylamino)-[1,2,4]triazolo[1,5-a]pyridin-5-ylamino)cyclohexanol] | 0.005 to 250 |  |  |
| O=C1CCCN1c1ccc(Nc2nc3cccc(-c4ccccc4)n3n2)cc1 [compound 50] |  |  | IC50 [2]: 0.005 to 250 nM |
| FC(F)(F)c1ccc(Nc2nc3cccc(OC[C@H]4CCCN4)n3n2)cc1 [Example 302, (R)-5-(pyrrolidin-2-ylmethoxy)-N-(4-(trifluoromethyl)phenyl)-[1,2,4]triazolo[1,5-a]pyridin-2-amine] | 1000 to 10000 |  |  |
| NCCCc1cccc2nc(Nc3ccccc3)nn12 [Example 498, 5-(3-aminopropyl)-N-phenyl-[1,2,4]triazolo[1,5-a]pyridin-2-amine] |  | 1000 to 10000 |  |
| CN1Cc2cc(Nc3nc4cccc(NC5CCOCC5)n4n3)ccc2C1=O [Example 144, 2-methyl-5-(5-(tetrahydro-2H-pyran-4-ylamino)-[1,2,4]triazolo[1,5-a]pyridin-2-ylamino)isoinoldin-1-one] |  |  | IC50 [2]: 1000 to 10000 nM |
| CNC(=O)c1ccc(Nc2nc3cccc(OC4CCC(N)CC4)n3n2)cc1 (stereo in doubt) [Example 291, trans-4-(5-(4-aminocyclohexyloxy)-[1,2,4]triazolo[1,5-a]pyridin-2-ylamino)-N-methylbenzamide] | 250 to 500 |  |  |
| CC(C)(C)OC(=O)N1C(=O)C(C)(C)c2ccc(Nc3nc4cccc(N[C@H]5CC[C@@H](O)CC5)n4n3)cc21 [Example 545, cis-tert-butyl 6-(5-(4-hydroxycyclohexylamino)-[1,2,4]triazolo[1,5-a]pyridin-2-ylamino)-3,3-dimethyl-2-oxoindoline-1-carboxylate] |  | 0.005 to 250 |  |
| NCc1ccc(Nc2nc3cccc(-c4cccc(O)c4)n3n2)cc1 [compound 24, 3-(2-(4-(aminomethyl)phenylamino)-[1,2,4]triazolo[1,5-a]pyridin-5-yl)phenol] |  |  | IC50 [2]: 250 to 500 nM |
| O=C1CCN(Cc2cccc3nc(Nc4ccc(C(F)(F)F)cc4)nn23)CCN1 [Example 269, 1-((2-(4-(trifluoromethyl)phenylamino)-[1,2,4]triazolo[1,5-a]pyridin-5-yl)methyl)-1,4-diazepan-5-one] | 500 to 1000 |  |  |
| CNCc1nc2ccc(-c3cccc4nc(Nc5ccc(F)cc5)nn34)cc2[nH]1 [Example 437, N-(4-fluorophenyl)-5-(2-((methylamino)methyl)-1H-benzo[d]imidazol-6-yl)-[1,2,4]triazolo[1,5-a]pyridin-2-amine] |  | 0.005 to 250 |  |
| CC(c1cccc2nc(Nc3ccc4c(c3)NC(=O)C4(C)C)nn12)C1CCOCC1 (centres unmarked) [Example 159, 3,3-dimethyl-6-(5-(1-(tetrahydro-2H-pyran-4-yl)ethyl)-[1,2,4]triazolo[1,5-a]pyridin-2-ylamino)indolin-2-one] |  |  | IC50 [2]: 0.005 to 250 nM |
| c1ccc(Nc2nc3cccc(Nc4ccccc4)n3n2)cc1 [Example 529, N^2,N^5-diphenyl-[1,2,4]triazolo[1,5-a]pyridine-2,5-diamine] |  | 250 to 500 |  |
| c1ccc(Nc2nc3cccc(C4CCNCC4)n3n2)cc1 [Example 512, N-phenyl-5-(piperidin-4-yl)-[1,2,4]triazolo[1,5-a]pyridin-2-amine] |  | 1000 to 10000 |  |
| OC1CCN(Cc2cccc3nc(Nc4ccc(C(F)(F)F)cc4)nn23)CC1 [Example 396, 1-((2-(4-(trifluoromethyl)phenylamino)-[1,2,4]triazolo[1,5-a]pyridin-5-yl)methyl)piperidin-4-ol] | 1000 to 10000 |  |  |
| Cc1n[nH]c2cc(Nc3nc4cccc(CN5CC(C)(O)C5)n4n3)ccc12 [Example 169, 3-methyl-1-((2-(3-methyl-1H-indazol-6-ylamino)-[1,2,4]triazolo[1,5-a]pyridin-5-yl)methyl)azetidin-3-ol] |  |  | IC50 [2]: 250 to 500 nM |
| CNC(=O)c1ccc(Nc2nc3cccc(N4CCC(O)C4)n3n2)cc1 (stereo in doubt) [Example 250, (R)-4-(5-(3-hydroxypyrrolidin-1-yl)-[1,2,4]triazolo[1,5-a]pyridin-2-ylamino)-N-methylbenzamide] | 500 to 1000 |  |  |
| CC1(C)C(=O)Nc2cc(Nc3nc4cccc(Cc5cc[nH]c(=O)c5)n4n3)ccc21 [Example 156, 3,3-dimethyl-6-(5-((2-oxo-1,2-dihydropyridin-4-yl)methyl)-[1,2,4]triazolo[1,5-a]pyridin-2-ylamino)indolin-2-one] |  |  | IC50 [2]: 0.005 to 250 nM |
| CNCc1nc2ccc(-c3cccc4nc(Nc5ccc(C(F)(F)F)cc5)nn34)cc2[nH]1 [Example 440, 5-(2-((methylamino)methyl)-1H-benzo[d]imidazol-6-yl)-N-(4-(trifluoromethyl)phenyl)-[1,2,4]triazolo[1,5-a]pyridin-2-amine] |  | 0.005 to 250 |  |
| CC(C)(O)c1nc2ccc(-c3cccc4nc(Nc5ccc(C(F)(F)F)cc5)nn34)cc2[nH]1 [Example 379, 2-(6-(2-(4-(trifluoromethyl)phenylamino)-[1,2,4]triazolo[1,5-a]pyridin-5-yl)-1H-benzo[d]imidazol-2-yl)propan-2-ol] | 250 to 500 |  |  |
| O=C1CN(Cc2cccc3nc(Nc4ccc(C(F)(F)F)cc4)nn23)CCN1 [Example 388, 4-((2-(4-(trifluoromethyl)phenylamino)-[1,2,4]-triazolo[1,5-a]pyridin-5-yl)methyl)piperazin-2-one] | 0.005 to 250 |  |  |
| CC1CNC(=O)CN1Cc1cccc2nc(Nc3ccc(C(F)(F)F)cc3)nn12 (centres unmarked) [Example 258, 5-methyl-4-((2-(4-(trifluoromethyl)phenylamino)-[1,2,4]triazolo[1,5-a]pyridin-5-yl)methyl)piperazin-2-one] | 500 to 1000 |  |  |
| OC(Cc1cccc2nc(Nc3ccc(F)cc3)nn12)c1ccccc1 (centres unmarked) [Example 431, 2-(2-(4-fluorophenylamino)-[1,2,4]triazolo[1,5-a]pyridin-5-yl)-1-phenylethanol] |  | 250 to 500 |  |
| NC(=O)c1ccc(Cc2cccc3nc(Nc4ccccc4)nn23)cc1 [Example 452, 4-((2-(phenylamino)-[1,2,4]triazolo[1,5-a]pyridin-5-yl)methyl)benzamide] |  | 1000 to 10000 |  |
| Cc1n[nH]c2ccc(Nc3nc4cccc(N[C@H]5CC[C@H](O)CC5)n4n3)cc12 [compound 127, trans-4-(2-(3-methyl-1H-indazol-5-ylamino)-[1,2,4]triazolo[1,5-a]pyridin-5-ylamino)cyclohexanol] |  |  | IC50 [2]: 0.005 to 250 nM |
| FC(F)(F)c1n[nH]c2cc(Nc3nc4cccc(NC5CCOCC5)n4n3)ccc12 [compound 129] |  |  | IC50 [2]: 250 to 500 nM |
| CC1(C)C(=O)Nc2cc(Nc3nc4cccc(N[C@@H]5CCOC5)n4n3)ccc21 [Example 150, (R)-3,3-dimethyl-6-(5-(tetrahydrofuran-4-ylamino)-[1,2,4]triazolo[1,5-a]pyridin-2-ylamino)indolin-2-one] |  |  | IC50 [2]: 0.005 to 250 nM |
| CC1(C)C(=O)Nc2cc(Nc3nc4cccc(NC5CCCNC5)n4n3)ccc21 (stereo in doubt) [Example 154, (S)-3,3-dimethyl-6-(5-(piperidin-3-ylamino)-[1,2,4]triazolo[1,5-a]pyridin-2-ylamino)indolin-2-one] |  |  | IC50 [2]: 0.005 to 250 nM |
| NC(=O)c1ccc(Nc2nc3cccc(N[C@H]4CCCNC4)n3n2)cc1 [Example 483, (S)-4-(5-(piperidin-3-ylamino)-[1,2,4]triazolo[1,5-a]pyridin-2-ylamino)benzamide] |  | 0.005 to 250 |  |

Second part, led by results:

| IC50 [1] [nM] | IC50 [3] [nM] | SMILES | further results |
| --- | --- | --- | --- |
| 500 to 1000 |  | O=C1NCc2ccc(Nc3nc4cccc(N[C@H]5CC[C@@H](O)CC5)n4n3)cc21 [Example 260, cis-6-(5-(4-hydroxycyclohexylamino)-[1,2,4]triazolo[1,5-a]pyridin-2-ylamino)isoindolin-2-one] |  |
| 0.005 to 250 |  | CCc1n[nH]c2cc(Nc3nc4cccc(N[C@H]5CC[C@@H](O)CC5)n4n3)ccc12 [Example 245, cis-4-(2-(3-ethyl-1H-indazol-6-ylamino)-[1,2,4]triazolo[1,5-a]pyridin-5-ylamino)cyclohexanol] |  |
|  | 500 to 1000 | O[C@@H]1CCC[C@@H]1Nc1cccc2nc(Nc3ccc(C(F)(F)F)cc3)nn12 [Example 406, (1R,2S)-2-(2-(4-(trifluoromethyl)phenylamino)-[1,2,4]triazolo[1,5-a]pyridin-5-ylamino)cyclopentanol] |  |
| 1000 to 10000 |  | OC1CCCC[C@H]1Nc1cccc2nc(Nc3ccc(C(F)(F)F)cc3)nn12 (stereo in doubt) [Example 270, (1S,2R)-2-(2-(4-(trifluoromethyl)phenylamino)-[1,2,4]triazolo[1,5-a]pyridin-5-ylamino)cyclohexanol] |  |
| 0.005 to 250 |  | Nc1n[nH]c2cc(Nc3nc4cccc(N[C@H]5CC[C@@H](O)CC5)n4n3)ccc12 [Example 216, cis-4-(2-(3-amino-1H-indazol-6-ylamino)-[1,2,4]triazolo[1,5-a]pyridin-5-ylamino)cyclohexanol] |  |
|  | 0.005 to 250 | c1cc(N[C@@H]2CCCNC2)n2nc(Nc3ccc4cn[nH]c4c3)nc2c1 [Example 467, (R)-N^2-(1H-indazol-6-yl)-N^5-(piperidin-3-yl)-[1,2,4]triazolo[1,5-a]pyridin-2,5-diamine] |  |
|  | 0.005 to 250 | O[C@H]1CC[C@@H](Nc2cccc3nc(Nc4cnc5cn[nH]c5c4)nn23)CC1 [Example 553, cis-4-(2-(1H-pyrazolo-[4,3-b]pyridin-6-ylamino)-[1,2,4]triazolo[1,5-a]pyridin-5-ylamino)cyclohexanol] |  |
| 0.005 to 250 |  | COc1cccc(Nc2nc3cccc(N[C@H]4CC[C@@H](O)CC4)n3n2)c1 [Example 338, cis-4-(2-(3-methoxyphenylamino)-[1,2,4]triazolo[1,5-a]pyridin-5-ylamino)cyclohexanol] |  |
